Results published in patent US20220096486A1, “COMPOUNDS FOR USE IN THE TREATMENT OF ADCY5-RELATED DYSKINESIA” (ASSISTANCE PUBLIQUE - HOPITAUX DE PARIS, priority 2019, published 2022).
Entries after “also recorded” stand apart in the source; their conditions may differ.

Columns and labels:
[1] = test system: A2AR knockout mice; details: cited from earlier work
[2] = test system: patient with ADCY5-related dyskinesia
Description: The patient is a child with the disorder. Pregnancy, birth and first acquisitions were unremarkable. They developed diurnal and nocturnal episodes of hyperkinetic involuntary movements involving the face and upper limbs, lasting from a few seconds to ten minutes. There was a clear kinesigenic trigger for some of the episodes, others were exercise-induced, and a few were spontaneous. In addition, they were described as clumsy, and had difficulties in various activities of daily living such as fine motor tasks or riding a bike. Frequency of the episodes was around 30 per day, causing significant disruption of activities. […] Interictal neurological examination was normal except for some fleeting choreodystonic movements. Because of the co-occurrence of several types of paroxysmal dyskinesia, the patient was first tested for mutations in the SLC2A1 and ADCY5 genes. Genetic analysis was negative for SLC2A1 but found a mosaic heterozygous mutation in the ADCY5 gene (c.2088+1G>A), previously reported as pathogenic (Carapito et al., A de novo ADCY5 mutation causes early-onset autosomal dominant chorea and dystonia. Mov Disord. 2015; 30(3):423-7).
Caffeine was the first treatment tried.

[3] = test system: patients with ADCY5-related dyskinesia; experiment: Seven patients treated with caffeine; dyskinesia episodes and self-rated improvement; type: in vivo, human; details: 150 to 800 mg of caffeine per day, all cases
Protocol: Currently, seven patients are treated with caffeine with similar results with uptakes varying from 150 to 800 mg of caffeine per day. […] Four of them were asked to rate the improvement brought by caffeine on their involuntary movements, on a scale of 0 (no improvement) to 100% (major improvement with total disappearance of symptoms). All four reported an improvement of 80 to 100%.

Cn1c(=O)c2c(ncn2C)n(C)c1=O [caffeine, 1,3,7-trimethylxanthine]
wake-promoting effect [1]: abolished | effect of resuming caffeine intake after four days of decaffeinated coffee ([2]; after unknowing switch to decaffeinated coffee with reversal to baseline): immediately restored the improvement | effect on diurnal and nocturnal episodes of dyskinesia ([2]; espresso in the morning, second espresso in the afternoon, half an espresso at bedtime, baseline around 30 episodes per day): next to complete resolution; also recorded: near-complete resolution | remaining short and non-disruptive episodes during the day ([2]; espresso morning, afternoon and half at bedtime, baseline around 30 episodes per day): at most one or two | start of dramatic response after intake ([2]; one espresso in the morning, approximately 100 mg of caffeine, child, c.2088+1G>A ADCY5 mutation): 45 min | effect on dyskinesia episodes [3]: reduction or a suppression of dyskinesia episodes
